A short description of series [1]: Molar enthalpy of transition or fusion. The following applies: DSC.
For series [2] the following is noted: for Normal melting temperature: Crystal 1, DTA; for Triple point temperature: Crystal 2, DSC.

± gives the expanded uncertainty stated by the source.

For the compound `CCCC[P+](CCCC)(CCCC)CCCS(=O)(=O)[O-]` [3-(tributylphosphonio)propane-1-sulfonate], the “Molar enthalpy of transition or fusion” value in series [1] (Crystal 1) is 2.32 ± 0.526 kcal/mol. Also, in series [1] (Crystal 2), the “Molar enthalpy of transition or fusion” value stood at 3.08 ± 0.526 kcal/mol. For the same compound, in series [2], the Normal melting temperature was determined as 160.02 ± 0.71 °C and the Triple point temperature is reported as 379.9 ± 0.94 K.
In the same order, the values of `CC[N+](CC)(CC)CCCS(=O)(=O)[O-]` [3-(triethylammonio)propane-1-sulfonate] are 3.66 ± 0.359 kcal/mol, 2.32 ± 0.335 kcal/mol, 172.88 ± 0.71 °C and 360.22 ± 0.94 K.
For `CCCCCC[N+](CCCCCC)(CCCCCC)CCCS(=O)(=O)[O-]` [3-(trihexylammonio)propane-1-sulfonate], in series [1] (Crystal 1), the “Molar enthalpy of transition or fusion” value stood at 6.79 ± 0.645 kcal/mol. Moreover, the Normal melting temperature in series [2] is 206.74 ± 0.71 °C.
In the same order, the values of `CCCC[P+](CCCC)(CCCC)CCCCS(=O)(=O)[O-]` [4-(tributylphosphonio)butane-1-sulfonate] are 4.71 ± 0.55 kcal/mol and 173.57 ± 0.71 °C.
For the compound `CCCCCC[N+](CCCCCC)(CCCCCC)CCCCS(=O)(=O)[O-]` [4-(trihexylammonio)butane-1-sulfonate], the “Molar enthalpy of transition or fusion” value in series [1] (Crystal 1) worked out at 4.31 ± 0.669 kcal/mol. The “Molar enthalpy of transition or fusion” value in series [1] (Crystal 2) was found to be 1.43 ± 0.669 kcal/mol. Besides, in series [2], the Normal melting temperature amounted to 199.60 ± 0.71 °C and the Triple point temperature came to 407.51 ± 0.94 K.
For the compound `O=S(=O)([O-])CCC[n+]1ccccc1` [[PyC3S]], in series [1] (Crystal 1), the “Molar enthalpy of transition or fusion” value came out at 9.44 ± 0.335 kcal/mol. For the same compound, the Normal melting temperature in series [2] was determined as 273.89 ± 0.71 °C.

Source of the values: the NIST ThermoML archive (doi:10.1016/j.fluid.2018.07.020).
